# Results as given in ChEMBL document CHEMBL4038288, “Novel quinoxalinyl chalcone hybrid scaffolds as enoyl ACP reductase inhibitors: Synthesis, molecular docking and biological evaluation” (Bioorg Med Chem Lett, 2017).
# Active and inactive are the calls of the source. The calls are words filed in the database; no cut-off is given here.
# What was measured:
# [1] = system: Candida albicans; experiment: Antimicrobial activity against Candida albicans after 18 to 24 hrs by agar well-diffusion method; assay type: functional
# [2] = system: Escherichia coli; experiment: Antimicrobial activity against Escherichia coli after 18 to 24 hrs by agar well-diffusion method; assay type: functional
# [3] = target: T1, Enoyl-[acyl-carrier-protein] reductase [NADH] (Mycobacterium tuberculosis) (UniProt P9WGR1); experiment: Inhibition of Mycobacterium tuberculosis H37Rv enoyl ACP reductase assessed as reduction in bacterial growth after 5 days by microplate alamar blue assay
# T1 sequence (whole entry): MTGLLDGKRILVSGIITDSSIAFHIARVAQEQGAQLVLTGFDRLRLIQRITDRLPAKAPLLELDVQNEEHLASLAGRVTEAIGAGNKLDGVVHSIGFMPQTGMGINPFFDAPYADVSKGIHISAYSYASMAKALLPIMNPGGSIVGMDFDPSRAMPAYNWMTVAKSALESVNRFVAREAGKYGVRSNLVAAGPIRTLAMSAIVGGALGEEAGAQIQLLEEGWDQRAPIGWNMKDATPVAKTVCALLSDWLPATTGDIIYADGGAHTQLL
# [4] = system: Staphylococcus aureus; experiment: Antimicrobial activity against Staphylococcus aureus after 18 to 24 hrs by agar well-diffusion method; assay type: functional
# [5] = system: MCF7; experiment: Cytotoxicity against human MCF7 cells assessed as cell lysis at 20 ug/ml after 48 hrs by MTT assay; assay type: functional, cell-based
# [6] = system: MCF7; experiment: Cytotoxicity against human MCF7 cells assessed as cell lysis at 30 ug/ml after 48 hrs by MTT assay; assay type: functional
# [7] = system: MCF7; experiment: Cytotoxicity against human MCF7 cells assessed as cell lysis at 50 ug/ml after 48 hrs by MTT assay; assay type: functional
# [8] = system: MCF7; experiment: Cytotoxicity against human MCF7 cells assessed as cell lysis at 10 ug/ml after 48 hrs by MTT assay; assay type: functional, cell-based
# [9] = system: MCF7; experiment: Cytotoxicity against human MCF7 cells assessed as cell lysis at 40 ug/ml after 48 hrs by MTT assay; assay type: functional
# [10] = system: MCF7; experiment: Anticancer activity against human MCF7 cells after 48 hrs by MTT assay; assay type: functional, cell-based
# [11] = system: MCF7; experiment: Cytotoxicity against human MCF7 cells assessed as cell lysis after 48 hrs by MTT assay; assay type: functional
Structure (SMILES),MIC [1],MIC [2],MIC [3],MIC [4],Activity [5],Activity [6],Activity [7],Activity [8],Activity [9],IC50 [10],Activity [11]
O=C(/C=C/c1cnc2ccccc2n1)c1ccc2ccccc2c1,25 µg/mL,25 µg/mL,25 µg/mL,25 µg/mL,–,–,–,–,–,–,–
OC(Cn1cncn1)(Cn1cncn1)c1ccc(F)cc1F [FLUCONAZOLE],16 µg/mL,–,–,–,–,–,–,–,–,–,–
O=C(/C=C/c1cnc2ccccc2n1)c1cccc(O)c1,10 µg/mL,5 µg/mL,3.12 µg/mL,10 µg/mL,–,–,–,–,–,–,–
O=C(/C=C/c1cnc2ccccc2n1)c1ccncc1,50 µg/mL,25 µg/mL,6.25 µg/mL,50 µg/mL,–,–,–,–,–,–,–
Nc1ccc(C(=O)/C=C/c2cnc3ccccc3n2)cc1,25 µg/mL,25 µg/mL,25 µg/mL,50 µg/mL,Active,50%,50%,Active,50%,25 µg/mL,–
O=C(/C=C/c1cnc2ccccc2n1)c1cccc([N+](=O)[O-])c1,25 µg/mL,25 µg/mL,25 µg/mL,50 µg/mL,–,–,–,–,–,–,–
NC(=O)c1cnccn1,–,–,3.12 µg/mL,–,–,–,–,–,–,–,–
CN[C@@H]1[C@H](O[C@H]2[C@H](O[C@H]3[C@H](O)[C@@H](O)[C@H](N=C(N)N)[C@@H](O)[C@@H]3N=C(N)N)O[C@@H](C)[C@]2(O)C=O)O[C@@H](CO)[C@H](O)[C@H]1O,–,–,6.25 µg/mL,–,–,–,–,–,–,–,–
O=C(O)c1cn(C2CC2)c2cc(N3CCNCC3)c(F)cc2c1=O [CIPROFLOXACIN],–,–,3.12 µg/mL,2 µg/mL,–,–,–,–,–,–,–
COc1ccc(C(=O)/C=C/c2cnc3ccccc3n2)cc1,25 µg/mL,25 µg/mL,25 µg/mL,50 µg/mL,–,–,–,–,–,–,–
Nc1cccc(C(=O)/C=C/c2cnc3ccccc3n2)c1,25 µg/mL,25 µg/mL,25 µg/mL,50 µg/mL,–,–,–,–,–,–,–
O=C(/C=C/c1cnc2ccccc2n1)c1ccc([N+](=O)[O-])cc1,50 µg/mL,25 µg/mL,25 µg/mL,50 µg/mL,–,–,–,–,–,–,–
O=C(/C=C/c1cnc2ccccc2n1)c1ccc(O)cc1,–,5 µg/mL,3.12 µg/mL,5 µg/mL,inactive,inactive,inactive,inactive,inactive,–,–
O=C(/C=C/c1cnc2ccccc2n1)c1ccc(Cl)cc1,25 µg/mL,10 µg/mL,25 µg/mL,25 µg/mL,–,–,–,–,–,–,–
O=C(/C=C/c1cnc2ccccc2n1)c1ccccc1,25 µg/mL,50 µg/mL,25 µg/mL,50 µg/mL,–,–,–,–,–,–,–
O=C(/C=C/c1cnc2ccccc2n1)c1cccc(Br)c1,25 µg/mL,5 µg/mL,25 µg/mL,25 µg/mL,–,–,–,–,–,–,–
COc1cccc2c1C(=O)c1c(O)c3c(c(O)c1C2=O)C[C@@](O)(C(=O)CO)C[C@@H]3O[C@H]1C[C@H](N)[C@H](O)[C@H](C)O1 [DOXORUBICIN],–,–,–,–,–,–,–,–,–,5 to 7.5 µg,50%
O=C(/C=C/c1cnc2ccccc2n1)c1ccc(F)cc1,25 µg/mL,25 µg/mL,25 µg/mL,75 µg/mL,inactive,inactive,inactive,inactive,inactive,50 µg/mL,–
O=C(/C=C/c1cnc2ccccc2n1)c1ccc(Br)cc1,75 µg/mL,25 µg/mL,50 µg/mL,75 µg/mL,–,–,–,–,–,–,–
